Data from BindingDB's records for doi:10.1016/j.bmcl.2004.01.021 (Atherogenics, 2004).

Target: T1, Tumor necrosis factor receptor superfamily member 1A (Homo sapiens, UniProt P19438)
T1 sequence (P19438 whole entry): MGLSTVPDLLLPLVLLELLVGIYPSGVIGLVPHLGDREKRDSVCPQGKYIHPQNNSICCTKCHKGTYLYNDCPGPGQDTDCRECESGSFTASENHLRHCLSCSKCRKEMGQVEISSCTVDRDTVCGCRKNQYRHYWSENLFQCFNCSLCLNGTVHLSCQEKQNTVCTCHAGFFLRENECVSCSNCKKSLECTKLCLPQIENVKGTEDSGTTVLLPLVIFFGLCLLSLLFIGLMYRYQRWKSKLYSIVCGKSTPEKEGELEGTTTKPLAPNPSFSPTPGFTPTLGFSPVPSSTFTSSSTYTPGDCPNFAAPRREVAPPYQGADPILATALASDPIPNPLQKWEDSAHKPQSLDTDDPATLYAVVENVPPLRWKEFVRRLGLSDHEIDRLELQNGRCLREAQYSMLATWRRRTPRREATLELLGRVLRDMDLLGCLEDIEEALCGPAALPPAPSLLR
Experiment: ChEBML_224214
Excerpt: Inhibition of TNF-alpha-induced VCAM-1 expression

SMILES	IC50 [µM]
COc1ccc(/C=C/C(=O)c2ccc(OC)cc2OC)cc1 [1-(2,4-Dimethoxy-phenyl)-3-(4-methoxy-phenyl)-propenone]	7
COc1ccc(C(=O)/C=C/c2ccccc2)cc1 [1-(4-methoxyphenyl)-3-phenylprop-2-en-1-one (6)]	14
COc1cc(OC)c(-c2cc3ccccc3s2)cc1/C=C/C(=O)c1ccc(OC(C)(C)C(=O)O)cc1 [2-{4-[(E)-3-(5-Benzo[b]thiophen-2-yl-2,4-dimethoxy-phenyl)-acryloyl]-phenoxy}-2-methyl-propionic acid]	6
COc1cc(OC(C)(C)C(=O)O)c(/C=C/C(=O)c2ccc(C(F)(F)F)cc2)cc1-c1cccs1 [2-{5-Methoxy-2-[(E)-3-oxo-3-(4-trifluoromethyl-phenyl)-propenyl]-4-thiophen-2-yl-phenoxy}-2-methyl-propionic acid]	4
COc1ccc(C(=O)/C=C/c2ccccc2)cc1OC [3',4'-dimethoxychalcone]	8
COc1ccc(C(=O)/C=C/c2ccc(OC)cc2OC)cc1 [3-(2,4-Dimethoxy-phenyl)-1-(4-methoxy-phenyl)-propenone]	29
COc1cc(OC)c(CCC(=O)c2cc(OC)c(OC)c(OC)c2)cc1Br [3-(5-Bromo-2,4-dimethoxy-phenyl)-1-(3,4,5-trimethoxy-phenyl)-propan-1-one]	> 50
COc1ccc(Br)cc1CCC(=O)c1cc(OC)c(OC)c(OC)c1 [3-(5-Bromo-2-methoxy-phenyl)-1-(3,4,5-trimethoxy-phenyl)-propan-1-one]	> 50
COc1cc(C(=O)/C=C/c2ccccc2)cc(OC)c1OC [3-phenyl-1-(3,4,5-trimethoxyphenyl)prop-2-en-1-one]	6
CCOC(=O)c1ccc(COc2ccc(C(=O)/C=C/c3cc(-c4cccs4)ccc3OC)cc2OC)cc1 [4-{2-Methoxy-4-[(E)-3-(2-methoxy-5-thiophen-2-yl-phenyl)-acryloyl]-phenoxymethyl}-benzoic acid ethyl ester]	4
COc1ccc(-c2cccs2)cc1/C=C/C(=O)c1ccc(OCc2ccc(C(=O)O)cc2)c(OC)c1 [4-{2-Methoxy-4-[(E)-3-(2-methoxy-5-thiophen-2-yl-phenyl)-acryloyl]-phenoxymethyl}-benzoic acid]	5
COc1ccc(-c2cccs2)cc1C=CC(=O)c1ccc(OCc2ccc(NC(=O)OC(C)(C)C)cc2)c(OC)c1 [(4-{2-Methoxy-4-[(E)-3-(2-methoxy-5-thiophen-2-yl-phenyl)-acryloyl]-phenoxymethyl}-phenyl)-carbamic acid tert-butyl ester]	> 50
O=C(/C=C/c1ccc(F)cc1)c1ccc(F)cc1 [(E)-1,3-Bis-(4-fluoro-phenyl)-propenone]	25
COc1cc(/C=C/C(=O)c2ccc3c(c2)OC(O)(O)O3)cc(-c2cccs2)c1OC [(E)-1-(2,2-Dihydroxy-benzo[1,3]dioxol-5-yl)-3-(3,4-dimethoxy-5-thiophen-2-yl-phenyl)-propenone]	1
COc1ccc(OC)c(C(=O)/C=C/c2cc(-c3cccs3)ccc2OC)c1 [(E)-1-(2,5-Dimethoxy-phenyl)-3-(2-methoxy-5-thiophen-2-yl-phenyl)-propenone]	2
COc1ccc(-c2cccs2)cc1/C=C/C(=O)c1c(OC)cccc1OC [(E)-1-(2,6-Dimethoxy-phenyl)-3-(2-methoxy-5-thiophen-2-yl-phenyl)-propenone]	3
COc1ccc(/C=C/C(=O)c2ccc(OC)c(OC)c2)cc1 [(E)-1-(3',4'-Dimethoxyphenyl)-3-(4''-methoxyphenyl)prop-2-en-1-one]	6
COc1cc(-c2cccc(C(C)=O)c2)ccc1C(=O)C=Cc1cc(OC)c(OC)c(OC)c1 [(E)-1-(3'-Acetyl-3-methoxy-biphenyl-4-yl)-3-(3,4,5-trimethoxy-phenyl)-propenone]	4
COc1ccc(-c2cccs2)cc1/C=C/C(=O)c1ccc(OC)c(OC)c1 [(E)-1-(3,4-Dimethoxy-phenyl)-3-(2-methoxy-5-thiophen-2-yl-phenyl)-propenone]	3
COc1ccc(C(=O)/C=C/c2ccc(-c3cccs3)cc2)cc1OC [(E)-1-(3,4-Dimethoxy-phenyl)-3-(4-thiophen-2-yl-phenyl)-propenone]	12
COc1ccc(-c2cc(C)cs2)cc1/C=C/C(=O)c1ccc(OC)c(OC)c1 [(E)-1-(3,4-Dimethoxy-phenyl)-3-[2-methoxy-5-(4-methyl-thiophen-2-yl)-phenyl]-propenone]	2
COc1ccc(-c2ccc(C)s2)cc1/C=C/C(=O)c1ccc(OC)c(OC)c1 [(E)-1-(3,4-Dimethoxy-phenyl)-3-[2-methoxy-5-(5-methyl-thiophen-2-yl)-phenyl]-propenone]	2

SMILES	IC50 [µM]
COc1ccc(/C=C/C(=O)c2cc(C(C)(C)C)c(O)c(C(C)(C)C)c2)cc1 [(E)-1-(3,5-Di-tert-butyl-4-hydroxy-phenyl)-3-(4-methoxy-phenyl)-propenone]	> 50
CC(C)(C)c1cc(C(=O)/C=C/c2ccccc2)cc(C(C)(C)C)c1O [(E)-1-(3,5-Di-tert-butyl-4-hydroxy-phenyl)-3-phenyl-propenone]	47
COc1ccc(/C=C/C(=O)c2cc(C(C)(C)C)c(OC)c(C(C)(C)C)c2)cc1 [(E)-1-(3,5-Di-tert-butyl-4-methoxy-phenyl)-3-(4-methoxy-phenyl)-propenone]	17
COc1c(C(C)(C)C)cc(C(=O)/C=C/c2ccccc2)cc1C(C)(C)C [(E)-1-(3,5-Di-tert-butyl-4-methoxy-phenyl)-3-phenyl-propenone]	9
COc1cc(OC)cc(C(=O)/C=C/c2cc(-c3cccs3)ccc2OC)c1 [(E)-1-(3,5-Dimethoxy-phenyl)-3-(2-methoxy-5-thiophen-2-yl-phenyl)-propenone]	2
COc1ccc(-c2cc(C(=O)/C=C/c3cc(OC)c(OC)c(OC)c3)c(OC)cc2OC)c(OC)c1 [(E)-1-(4,6,2',4'-Tetramethoxy-biphenyl-3-yl)-3-(3,4,5-trimethoxy-phenyl)-propenone]	3
COc1cc(/C=C/C(=O)c2cc(OC)c(OCc3ccccc3)c(OC)c2)cc(Br)c1OC [(E)-1-(4-Benzyloxy-3,5-dimethoxy-phenyl)-3-(3-bromo-4,5-dimethoxy-phenyl)-propenone]	> 50
O=C(/C=C/c1ccc(F)c(-c2cccs2)c1)c1ccc(F)cc1 [(E)-1-(4-Fluoro-phenyl)-3-(4-fluoro-3-thiophen-2-yl-phenyl)-propenone]	4
COc1cc(C(=O)/C=C/c2cc(-c3cccs3)ccc2OC)ccc1O [(E)-1-(4-Hydroxy-3-methoxy-phenyl)-3-(2-methoxy-5-thiophen-2-yl-phenyl)-propenone]	7
COc1ccc(C(=O)/C=C/c2cc(-c3cccs3)ccc2OC)cc1 [(E)-1-(4-Methoxy-phenyl)-3-(2-methoxy-5-thiophen-2-yl-phenyl)-propenone]	3
COc1ccc(-c2cccs2)cc1/C=C/C(=O)c1ccc2c(c1)OCO2 [(E)-1-Benzo[1,3]dioxol-5-yl-3-(2-methoxy-5-thiophen-2-yl-phenyl)-propenone]	4
COc1ccc(-c2cc(C)cs2)cc1/C=C/C(=O)c1ccc2c(c1)OCO2 [(E)-1-Benzo[1,3]dioxol-5-yl-3-[2-methoxy-5-(4-methyl-thiophen-2-yl)-phenyl]-propenone]	4
COc1ccc(-c2ccc(C)s2)cc1/C=C/C(=O)c1ccc2c(c1)OCO2 [(E)-1-Benzo[1,3]dioxol-5-yl-3-[2-methoxy-5-(5-methyl-thiophen-2-yl)-phenyl]-propenone]	3
COCCOc1c(OC)cc(C(=O)/C=C/c2cc(OC)c(OC)c(OC)c2)cc1OC [(E)-1-[3,5-Dimethoxy-4-(2-methoxy-ethoxy)-phenyl]-3-(3,4,5-trimethoxy-phenyl)-propenone]	5
COc1cc(/C=C/C(=O)c2cc(OC)c(OCc3cc(OC)c(OC)c(OC)c3)c(OC)c2)cc(OC)c1OC [(E)-1-[3,5-Dimethoxy-4-(3,4,5-trimethoxy-benzyloxy)-phenyl]-3-(3,4,5-trimethoxy-phenyl)-propenone]	3
COC1=C(c2c(OC)cc(C(=O)/C=C/c3cc(OC)c(OC)c(OC)c3)cc2OC)Oc2ccccc2O1 [(E)-1-[3,5-Dimethoxy-4-(3-methoxy-benzo[1,4]dioxin-2-yl)-phenyl]-3-(3,4,5-trimethoxy-phenyl)-propenone]	2
COc1ccc(COc2c(OC)cc(C(=O)/C=C/c3cc(OC)c(OC)c(OC)c3)cc2OC)cc1 [(E)-1-[3,5-Dimethoxy-4-(4-methoxy-benzyloxy)-phenyl]-3-(3,4,5-trimethoxy-phenyl)-propenone]	1
COc1cc(/C=C/C(=O)c2cc(OC)c(OCc3cccs3)c(OC)c2)cc(OC)c1OC [(E)-1-[3,5-Dimethoxy-4-(thiophen-2-ylmethoxy)-phenyl]-3-(3,4,5-trimethoxy-phenyl)-propenone]	3
COC1=C(c2ccc(C(=O)/C=C/c3cc(OC)c(OC)c(OC)c3)cc2OC)Oc2ccccc2O1 [(E)-1-[3-Methoxy-4-(3-methoxy-benzo[1,4]dioxin-2-yl)-phenyl]-3-(3,4,5-trimethoxy-phenyl)-propenone]	4
COc1ccc(-c2cccs2)cc1/C=C/C(=O)c1ccc(OCc2ccccn2)c(OC)c1 [(E)-1-[3-Methoxy-4-(pyridin-2-ylmethoxy)-phenyl]-3-(2-methoxy-5-thiophen-2-yl-phenyl)-propenone]	3
COc1ccc(-c2cccs2)cc1/C=C/C(=O)c1ccc(OCc2cccnc2)c(OC)c1 [(E)-1-[3-Methoxy-4-(pyridin-3-ylmethoxy)-phenyl]-3-(2-methoxy-5-thiophen-2-yl-phenyl)-propenone]	3
